“Also recorded” adds a separate entry of the source. Where two headings read alike, the source gives them in different places.
How the values were obtained:
[1] = tested on: HSV; conditions: 0.1 PFU HSV per cell, 24 hrs, 2 mM TCP vs DMSO
Experimental: (§1) Cell infections: For HSV, cells were infected with 0.1 plaque forming units (PFU) of HSV per cell for 24 hrs in the presence of 2 mM Tranylcypromine (TCP) or control DMSO. The resulting viral yields were determined by titer of infected cell lysates on Vero cell monolayers. VZV infections were performed as in Example 3.

[2] = tested on: viral IE promoters (histone H3, H3K9 and H3K4 methylation); test: Chromatin immunoprecipitation of viral IE promoters in MAOI-treated infected cells; format: cell-based; conditions: for nucleosomes bearing repressive marks on the viral IE promoters (histone H3 and H3K9 methylation): in the presence of drug
Experimental: Chromatin immunoprecipitations (ChIP) from extracts of control, HCF-1 depleted, and LSD1 depleted cells were done essentially as described (Narayanan et al., Proc. Natl. Acad. Sci. USA, 2007, 104, 10835-40). Recovered DNA was subjected to semi-quantitative PCR with dilutions of input DNA to insure linearity using PCR Supermix (Invitrogen, Carlsbad, Calif.) with the following conditions: 95° C. for 2 min followed by 20 cycles of 95° C. for 30 sec; 59° C. for 30 sec; 72° C. for 30 sec. The signal intensities of individual bands, resolved in ethidium bromide agarose gels, were calculated as a percentage of the intensity of the input extract after subtraction of the appropriate background antibody controls. Signal intensities of resolved bands were quantitated using a Kodak 4000MM Image Station.
Samples also were analyzed, in triplicate, by qPCR using ABI Sybr Green PCR Master Mix. For qPCR, samples were run on a ABI PRISM 7900HT with the following conditions: 95° C. for 10 min followed by 40 cycles of 95° C. for 15 sec; 57° C. for 15 sec; 72° C. for 30 sec. Results were analyzed using ABI SDS 2.3 software.
(§2) For treatment with MAOIs, cells were pretreated with the indicated concentration of drug for 4-5 hrs prior to infection and maintained throughout infection. Pargyline (p-8013) and Tranylcypromine (p-8511) were obtained from Sigma (St. Louis, Mo.).

[3] = tested on: herpes simplex virus (HSV); test: HSV infection of cells treated with MAOIs; qRT-PCR of HSV IE genes and IE proteins; format: cell-based, HSV-1 strain 17; conditions: HSV-infected cells, selected concentrations of drug; relative to DMSO treated cells
[4] = Cellular protein controls and cellular toxicity in MAOI-treated infected cells; format: cell-based
Source text: as §2

[5] = tested on: varicella zoster virus (VZV); test: VZV infection of cells treated with MAOIs; qRT-PCR of IE62 mRNA and IE proteins; format: cell-based; conditions: VZV-infected cells, 4 hrs, increasing amounts of drug; relative to DMSO treated cells
Experimental: The methods of Example 1 were followed.
as §1

[6] = tested on: Adenovirus Type 5; conditions: HeLa cells, 2 mM, 5 hours prior to infection, 2 or 4 hours infection
Experimental: Viral infection and treatment with TCP: HeLa cells (2×10^6) were treated with control DMSO (D) or 2 mM Tranylcypromine (T) for 5 hours prior to infection with various amounts of Adenovirus Type 5 (1.2×10^8, 2.3×10^8, and 4.5×10^8 NAS IU) for 2 or 4 hours. Equal amounts of infected cell lysates were resolved by SDS-PAGE and Western blotted with anti-E1A, anti-LSD1, and anti-β tubulin antibodies. HEK293 and uninfected HeLa cell lysates represented E1A positive and negative controls.
HeLa cells (2×10^6) were treated with control DMSO (D) or various concentrations of Tranylcypromine (TCP) for 5 hours prior to infection with 2.3×10^9 NAS IU of adenovirus Type 5 for 2 hours. Equal amounts of infected cell lysates were resolved by SDS-PAGE and Western blotted with anti-E1A, anti-β Tubulin, and anti-TBP antibodies.

[7] = tested on: HSV ICP8; test: ICP8 immunofluorescence of explanted latently infected trigeminal ganglia; format: cell-based, Balb/c mice; conditions: for ganglia with ICP8 (+) neurons: explant 48 hrs in the presence of drug
Experimental: (§3) Latently infected mice and trigeminal ganglia: Balb/c mice were infected with 5×10^5 PFU HSV-1 (strain 17) per eye after corneal scarification. Latently infected mice were sacrificed 30 days post clearance of the primary infection and trigeminal ganglia were rapidly explanted into culture in the presence or absence of TCP or control (DMSO or acyclovir). Post explant incubation as indicated, the ganglia were homogenized and briefly sonicated. The reactivated viral yield of each ganglia was determined by titering the clarified supernatant on Vero cells.
Immunofluorescence statistical analysis: Trigeminal ganglia (16 DMSO/Control, 15 acyclovir, and 15 TCP) were fixed at 48 hours post explants. Serial sections representing the entire ganglia were stained and scored by confocal microscopy.
Therefore, latently infected ganglia were explanted in the presence of DMSO (control vector), acyclovir (to prevent viral DNA replication and spread), or TCP for 48 hrs. Ganglia were fixed and sections were probed with antibodies to HSV ICP8, the viral-encoded single stranded binding protein.

[8] = tested on: HSV IE mRNA (ICP27, ICP4); test: Nested RT-PCR of viral IE mRNAs in explanted latently infected ganglia; format: cell-based, Balb/c mice; conditions: paired ganglia explanted 12 hrs; 100 μM acyclovir or 2 mM TCP
Experimental: For the detection of viral IE and cellular mRNAs post explant, 8 ganglia from HSV latently infected or mock infected Balb/c mice were explanted in the presence of DMSO, 100 μM acyclovir, or 2 mM TCP for the indicated times. cDNAs were prepared from total RNA and amplified by qPCR (cellular Sp1 and TBP controls) or nested PCR (viral IE). Primer sets for the nested RT-PCR were as follows:
cDNA samples were normalized to one another according to the level of cellular control Sp1 mRNA. To insure linearity and sensitivity of nested PCR reactions, samples were amplified in parallel with dilutions of cDNA prepared from 3T3 cells infected with HSV at 6.4×10^−5 pfu/cell for 4 hrs. PCR products were resolved in agarose gels and quantitated using Kodak Image Station 4000MM Digital Imaging System.

[9] = tested on: HSV-1 (strain 17); test: HSV reactivation: viral yield from explanted trigeminal ganglia of latently infected mice; format: cell-based, Balb/c mice
Experimental: as §3
Statistical analyses: Statistical comparisons were made using Wilcoxon signed rank test (paired ganglia) with a statistical significance of <0.05; Kruskal-Wallis test with post hoc Dunn's multiple comparison test (drug titration and reversal) with a statistical significance of <0.025; Mann-Whitney U test with Dunn's post hoc adjustment (non-paired ganglia time course) with a statistical significance of <0.025; or Fischer's Exact Test with a statistical significance of <0.05. Analyses were made using Prism (V5.0a) and are expressed as the mean+/−s.e.m.
Non-paired ganglia time course statistic analysis: Comparisons were made between control (DMSO) and TCP treated ganglia on day 2 and day 4 post explant. Each comparison utilized a one-sided Mann-Whitney U test followed by application of the Dunn's post hoc adjustment to the p-values. Significant differences were found between DMSO and TCP on day 2 (p=0.0043) and on day 4 (p=0.0011). Both of these differences are still significant after applying the Dunn's adjustment as both are less than the alpha level (α=0.025). The Mann-Whitney tests used an exact p-value for small sample sizes. n=6 for each sample set.
Paired ganglia statistical analysis: Each data point was the result of a single ganglia divided and treated in the presence and absence of TCP. Therefore, a Wilcoxon signed rank test was used to assess differences between each treated and untreated sample. The significant difference was p=0.0002. This test used an exact p-value for small sample sizes with an α level of 0.05. n=16 for each sample set.
TCP titration statistical analysis: To determine at what concentration TCP that would produce a significant reduction in viral load, a Kruskal-Wallis (K-W) test with Dunn's post hoc comparison was used. The K-W test was appropriate due to the comparison of five samples of data that are not normally distributed. Significant differences were found between the five groups (p=0.0007, K-W=19.39). […] No significant difference was found between 1.0 and 1.5 or 1.5 and 2.0 mM data sets. n=5 for control, 0.5, 1.0, and 2.0 mM; n=6 for […].
TCP reversal statistical analysis: Viral yields from ganglia treated without TCP for 2 days, treated with TCP for 2 days, or treated with TCP for 2 days followed by incubation in the absence of drug for 3 days were compared using the K-W test followed by Dunn's post hoc comparisons. The K-W test was appropriate due to the comparison of three samples of data that are not nominally distributed. Significant differences were found between the groups ([…], K-W=10.3).

N[C@@H]1C[C@H]1c1ccccc1 (racemic) [TCP, Tranylcypromine]
reduction of viral yields [1]: ~1000 fold
histone H3 and H3K9 trimethylation on viral IE promoters ([2]; in the presence of TCP): substantial increase
level of H3K4 trimethylation on viral IE promoters ([2]; in the presence of TCP): did not significantly change
nucleosomes bearing repressive marks on the viral IE promoters (histone H3 and H3K9 methylation) [2]: accumulated
viral mRNA (HSV IE genes) and IE proteins [3]: dose dependent decrease
cellular toxicity ([4]; VZV and HSV infected cells treated with inhibitor): no significant cellular toxicity
viral mRNA (IE62) and IE proteins [5]: dose dependent decrease
expression of the adenovirus IE protein E1A [6]: inhibits the expression
odds of viral reactivation, DMSO treated vs TCP treated samples (Odds Ratio) ([7]; 48 hours post explant): 60.6667 times higher
odds of viral reactivation, acyclovir treated vs TCP treated samples (Odds Ratio) ([7]; 48 hours post explant): 42.0000 times higher
ganglia with ICP8 (+) neurons [7]: 1 of 15
ICP27 mRNA level [8]: not significantly above that of background controls
reduction in viral load vs control (DMSO) ([9]; 0.5 mM TCP, 2 days explant, Dunn's post hoc): did not
reduction in viral load vs control (DMSO) ([9]; 1.0 mM TCP, 2 days explant, Dunn's post hoc p<0.05): showed significant differences
reduction in viral load vs control (DMSO) ([9]; 1.5 mM TCP, 2 days explant, Dunn's post hoc p<0.05): showed significant differences
viral reactivation following drug removal (TCP-R) ([9]; 2 mM TCP 2 days, then 3 days in the absence of drug): high level of viral reactivation; also recorded: HSV reactivation
reduction in viral load vs control (DMSO) ([9]; 2.0 mM TCP, 2 days explant, Dunn's post hoc p<0.05): showed significant differences
viral reactivation (viral yield), paired ganglia ([9]; each half of a ganglia explanted with or without 2 mM TCP, 2 days, p=0.0002, n=16): inhibition of viral reactivation; also recorded: decrease in viral yield
reactivation of HSV-1 (viral yield), non-paired ganglia time course ([9]; explant 2 or 4 days, 2 mM TCP vs DMSO, p=0.0043 (day 2), 0.0011 (day 4), n=6): significantly reduced; also recorded: decrease in viral yield
HSV reactivation at various (lower) levels of TCP ([9]; titration of TCP, 2 days explant): lower levels also were effective; also recorded: inhibition of HSV reactivation

C#CCN(C)Cc1ccccc1 [Pargyline]
nucleosomes bearing repressive marks on the viral IE promoters (histone H3 and H3K9 methylation) [2]: accumulated
viral mRNA (HSV IE genes) and IE proteins [3]: dose dependent decrease
cellular toxicity [4]: no significant cellular toxicity
viral mRNA (IE62) and IE proteins [5]: dose dependent decrease

Nc1nc2c(ncn2COCCO)c(=O)[nH]1 [acyclovir]
odds of viral reactivation, DMSO treated vs acyclovir treated samples (Odds Ratio) ([7]; 48 hours post explant): 1.4444 times higher
ganglia with ICP8 (+) neurons [7]: 9 of 12
ICP27 mRNA level [8]: readily detected

Source: patent publication US9499821B2, “Preventing or treating viral infection using an inhibitor of the LSD1 protein, a MAO inhibitor or an inhibitor of LSD1 and a MAO inhibitor” (The United States of America, as represented by the …, priority 2008, dated 2016)
